Measurements published in PMC4206749 (Toxicological Research, 2014).

Tested on: CHL cells (Chinese hamster lung fibroblast cell line)
Experiment: In vitro chromosomal aberration assay
Type: cell-based
Settings: for Gap / Numerical aberrations, PP + ER / Structural aberrations, Chromatid type, ctb / Structural aberrations, Chromatid type, cte / Structural aberrations, Chromosome type, csb / Structural aberrations, Chromosome type, cse / Structural aberrations, Others: 200 cells
[1] = S9 (−), 24~0 hr continuous, 25 μg/ml
[2] = S9 (−), 24~0 hr continuous, 50 μg/ml

## Oc1ccc(-c2ccc3cc(O)ccc3c2)c(O)c1 [HS-1793, 4-(6-hydroxy-2-naphthyl)-1,3-benzenediol]
S9 (+), 6~18 hr, 6.25 μg/ml
  Growth index: 98%
  Total frequency (+) Gap: 1.5%
  Total frequency (−) Gap: 1%
  Gap: 1
  Numerical aberrations, PP + ER: 0
  Structural aberrations, Chromatid type, ctb: 1
  Structural aberrations, Chromatid type, cte: 1
  Structural aberrations, Chromosome type, csb: 0
  Structural aberrations, Chromosome type, cse: 0
  Structural aberrations, Others: 0
S9 (+), 6~18 hr, 12.5 μg/ml
  Growth index: 95%
  Total frequency (+) Gap: 1%
  Total frequency (−) Gap: 0.5%
  Gap: 1
  Numerical aberrations, PP + ER: 0
  Structural aberrations, Chromatid type, ctb: 0
  Structural aberrations, Chromatid type, cte: 1
  Structural aberrations, Chromosome type, csb: 0
  Structural aberrations, Chromosome type, cse: 0
  Structural aberrations, Others: 0
S9 (+), 6~18 hr, 25 μg/ml
  Growth index: 89%
  Total frequency (+) Gap: 3.5%
  Total frequency (−) Gap: 2.5%
  Gap: 2
  Numerical aberrations, PP + ER: 0
  Structural aberrations, Chromatid type, ctb: 2
  Structural aberrations, Chromatid type, cte: 3
  Structural aberrations, Chromosome type, csb: 0
  Structural aberrations, Chromosome type, cse: 0
  Structural aberrations, Others: 0
S9 (+), 6~18 hr, 50 μg/ml
  Total frequency (+) Gap: 3%
  Total frequency (−) Gap: 2.5%
  Gap: 1
  Numerical aberrations, PP + ER: 0
  Structural aberrations, Chromatid type, ctb: 3
  Structural aberrations, Chromosome type, csb: 0
  Structural aberrations, Chromosome type, cse: 0
  Structural aberrations, Others: 0
S9 (+), 6~18 hr, 100 μg/ml
  Growth index: 71%
  Total frequency (+) Gap: 1.5%
  Total frequency (−) Gap: 0.5%
  Gap: 2
  Numerical aberrations, PP + ER: 0
  Structural aberrations, Chromatid type, ctb: 0
  Structural aberrations, Chromatid type, cte: 1
  Structural aberrations, Chromosome type, csb: 0
  Structural aberrations, Chromosome type, cse: 0
  Structural aberrations, Others: 0
S9 (−), 6~18 hr, 6.25 μg/ml
  Growth index: 98%
  Total frequency (+) Gap: 1.5%
  Total frequency (−) Gap: 1%
  Gap: 1
  Numerical aberrations, PP + ER: 0
  Structural aberrations, Chromatid type, ctb: 0
  Structural aberrations, Chromatid type, cte: 2
  Structural aberrations, Chromosome type, csb: 0
  Structural aberrations, Chromosome type, cse: 0
  Structural aberrations, Others: 0
S9 (−), 6~18 hr, 12.5 μg/ml
  Growth index: 90%
  Total frequency (+) Gap: 2%
  Total frequency (−) Gap: 1%
  Gap: 2
  Numerical aberrations, PP + ER: 0
  Structural aberrations, Chromatid type, ctb: 1
  Structural aberrations, Chromatid type, cte: 1
  Structural aberrations, Chromosome type, csb: 0
  Structural aberrations, Chromosome type, cse: 0
  Structural aberrations, Others: 0
S9 (−), 6~18 hr, 25 μg/ml
  Growth index: 84%
  Total frequency (+) Gap: 2%
  Total frequency (−) Gap: 1%
  Gap: 2
  Numerical aberrations, PP + ER: 0
  Structural aberrations, Chromatid type, ctb: 0
  Structural aberrations, Chromatid type, cte: 1
  Structural aberrations, Chromosome type, csb: 1
  Structural aberrations, Chromosome type, cse: 0
  Structural aberrations, Others: 0
S9 (−), 6~18 hr, 50 μg/ml
  Growth index: 72%
  Total frequency (+) Gap: 1.5%
  Total frequency (−) Gap: 1%
  Gap: 1
  Numerical aberrations, PP + ER: 0
  Structural aberrations, Chromatid type, ctb: 1
  Structural aberrations, Chromatid type, cte: 1
  Structural aberrations, Chromosome type, csb: 0
  Structural aberrations, Chromosome type, cse: 0
  Structural aberrations, Others: 0
S9 (−), 6~18 hr, 100 μg/ml
  Growth index: 65%
  Total frequency (−) Gap: 0.5%
  Gap: 2
  Structural aberrations, Chromatid type, ctb: 0
  Structural aberrations, Chromosome type, csb: 0
  Structural aberrations, Chromosome type, cse: 0
  Structural aberrations, Others: 0
S9 (−), 24~0 hr continuous, 6.25 μg/ml
  Growth index: 93%
S9 (−), 24~0 hr continuous, 12.5 μg/ml
  Growth index: 85%
[1]
  Growth index: 79%
  Gap: 1
  Numerical aberrations, PP + ER: 1
  Structural aberrations, Chromatid type, ctb: 0
  Structural aberrations, Chromatid type, cte: 1
  Structural aberrations, Chromosome type, csb: 0
  Structural aberrations, Chromosome type, cse: 0
  Structural aberrations, Others: 0
[2]
  Growth index: 72%
  Total frequency (+) Gap: 2%
  Total frequency (−) Gap: 1.5%
  Structural aberrations, Chromatid type, ctb: 2
  Structural aberrations, Chromatid type, cte: 1
  Structural aberrations, Chromosome type, csb: 0
  Structural aberrations, Chromosome type, cse: 0
  Structural aberrations, Others: 0
S9 (−), 24~0 hr continuous, 100 μg/ml
  Growth index: 58%
Continuous treatment for 24 hr, 6.25, 12.5, 25, 50 and 100 μg/ml, absence of the S9 mix
  Incidence of structural or numerical chromosomal aberrations: did not induce a significant increase
Short term treatment for 6 hr, 6.25, 12.5, 25, 50 and 100 μg/ml, presence or absence of the S9 mix
  Incidence of structural or numerical chromosomal aberrations: did not induce a significant increase
